From PMC6611794, “Development of a high-throughput strategy for discovery of potent analogues of antibiotic lysocin E” (Nature Communications, 2019)
“Also recorded” adds a separate entry of the source. Like-named read-outs stand apart in the source and are kept apart here. Where a SMILES comes first, the peptide text is derived from it. Bridges are numbered along the chain shown (N, C = ends). [ ]: non-standard residue; d: D form. The star is where a group is joined. Hexanoyl(3R-OH,5-Me) = CC(C)C[C@@H](O)CC(=O)*; dNMeF = CN[C@H](Cc1ccccc1)C(=O)O; dOrn = NCCC[C@@H](N)C(=O)O

Assays:
[1] = system: S. aureus Smith ATCC 13709; experiment: Antimicrobial activity assay of bead-derived peptides (one-bead, microscale); format: cell-based, Staphylococcus aureus; parameters: key to antimicrobial activity: ++: inhibition; +: partial inhibition; -: no inhibition; settings: for antimicrobial activity: 85% of one-bead-derived crude peptide, 40 μL Mueller Hinton Broth with 10% calf serum, 37 °C, 18 h
Description: Finally, a microscale antimicrobial assay was developed to evaluate the activity of 1 in solution phase.
Antimicrobial activity assay of bead-derived peptides. To the crude peptides in the 96-well round-bottom plate was added DMSO (1 µL/well). To the solution of peptides in each well was added a suspension of S. aureus Smith ATCC 13709 strain in 10% calf serum containing cation adjusted Müller Hinton Broth [40 µL, 2 ×10^5 colony forming units (CFU) , 21 g/L Müller Hinton Broth (Difco), 5 0 mg/L Ca2+ (adjusted with CaCl2• 2H2O), and 25 mg/L Mg 2+ (adjusted with MgCl 2•6H2O)]. The plate was incubated at 37 °C for 18 h, and the precipitation of the grown cells was examined. […]

[2] = Liposomal membrane disruption assay (carboxyfluorescein LUVs); format: biochemical
Description: Preparation of LUVs consisting of PC/PG. Carboxyfluorescein-encapsulated large unilamellar vesicles (LUVs) were prepared according to the thin-film hydration method, followed by extrusion through Nuclepore polycarbonate filters (GE Healthcare) mounted in the mini-extruder apparatus (Avanti Polar Lipids). A solution of egg yolk phosphatidylcholine (9.60 mg, 12.5 µmol) and egg yolk phosphatidylglycerol (9.78 mg, 12.5 µmol) in CHCl3 (0.505 mL) was concentrated, and dried under vacuum to form a lipid thin film. The thin film was hydrated and suspended in carboxyfluorescein-containing buffer solution [0.500 mL, 5 mM 4-(2-hydroxyethyl)-1-piperazineethanesulfonic acid (HEPES), 20 mM carboxyfluorescein, pH 7.5] by vortexing and sonication. After five -times freeze-thaw cycles, the lipid suspension was extruded 19 times through a polycarbonate filter with 0.40 µm of pore size in the diameter. The external carboxyfluorescein -containing buffer was replaced w ith a carboxyfluorescein -free buffer solution [20 mM HEPES, 1 mM ethylenediaminetetraacetic acid (EDTA), pH 7.5] through size exclusion chromatography using disposable PD-10 column (GE Healthcare). Concentration of egg yolk phosphatidylcholine was determined by using Phospholipid C-Test Wako (Fujifilm Wako Pure Chemical). The final concentration of egg yolk phosphatidylcholine was adjusted to 4.0 µM with the carboxyfluorescein-free buffer solution, and the solution was used for membrane disruption assay. […]
Membrane disruption assay. […]
(§1) to various concentrations as 5-fold serial dilutions. The solution of peptides (2 µL/well) and the carboxyfluorescein-encapsulated LUV suspension (200 µL/well) were mixed in black polystyrene flat-bottom 96-well plates. The final concentration of peptides ranged from 2970 nM to 0.950 nM. The plates were vortexed at room temperature for 30 min, and then fluorescence of carboxyfluorescein (Ex. 490 nm/Em. 517 nm) of each well was measured at room temperature on Gemini EM microplate reader. Trion X-100/H2O (5/95, 2 µL), MeOH/H2O (4/6, 2 µL), and the LUV suspension were mixed in each plate to determine 100% lysis. MeOH/H2O (4/6, 2 µL) and the LUV suspension were mixed in each plate to determine 0% lysis.
(§2) The membrane disruption activities of tested peptides (I) were normalized against 100% lysis by Triton X -100 […]
(§3) (Imax) and 0% lysis by MeOH/H2O (4/6) (I0) as following, where Ix is the fluorescence intensity (Supplementary Equation 2).
(§4) I = 100 × (Ix – I0) / (Imax – I0) (2)
(§5) The membrane-disrupting activities were evaluated as half-maximal response (EC50, nM) values by means of three replicates. Sigmoidal curve fittings were performed on R2 with drc package (Supplementary Figs S7–S9).3 Two-parameter logistic model was applied for the fitting.

[3] = as above; format: biochemical; remark: listed apart in the source
Description: Preparation of LUVs consisting of PC/PG/MK-4 or PC/PG/UQ-10. To a solution of egg yolk phosphatidylcholine (9.48 mg, 12.4 µmol) and egg yolk phosphatidylglycerol (9.66 mg, 12.4 µmol) in CHCl3 (0.208 mL) was added a solution of MK-4 (2) or UQ-10 (3) (0.313 µmol) in CHCl3 (21.8 µL). The solution was concentrated, and dried under vacuum to for m a lipid thin film. The thin film was hydrated and suspended in carboxyfluorescein-containing buffer solution (0.500 mL, 5 mM HEPES, 20 mM carboxyfluorescein , pH 7.5) by vortexing and sonication. After five-times freeze-thaw cycles, the lipid suspension was extruded 19 times through a polycarbonate filter with 0.40 µm of pore siz e in the diameter.
The external carboxyfluorescein -containing buffer was replaced with a carboxyfluorescein -free buffer solution (20 mM HEPES, 1 mM EDTA, pH 7.5) through size exclusion chromatography using disposable PD -10 column. Concentration of egg yolk phosphatidylcholine was determined by using Phospholipid C -Test Wako.
The final concentration of egg yolk phosphatidylcholine was adjusted to 4.0 µM with the carboxyfluorescein -free buffer solution, and the solution was used for membrane disruption ass ay.
as §1, with “Membrane disruption assay. Peptides 1, A1–A22, B1–B5, and C1–C5 were diluted with MeOH/H2O (4/6) to various” for “to various”
as §2, §3, §4, §5

[4] = 30 min, room temperature, mean ± SD of three independent experiments, read-out: EC50 PC/PG
[5] = PC/PG LUVs, 1st experiment, read-out: EC50 PC/PG 1st
[6] = PC/PG LUVs, 2nd experiment, read-out: EC50 PC/PG 2nd
[7] = PC/PG LUVs, 3rd experiment, read-out: EC50 PC/PG 3rd
[8] = 30 min, room temperature, mean ± SD of three independent experiments, read-out: EC50 PC/PG/3
[9] = PC/PG/3 LUVs, 1st experiment, read-out: EC50 PC/PG/3 1st
[10] = PC/PG/3 LUVs, 2nd experiment, read-out: EC50 PC/PG/3 2nd
[11] = PC/PG/3 LUVs, 3rd experiment, read-out: EC50 PC/PG/3 3rd

SMILES	EC50 [2, 4]	EC50 [2, 5]	EC50 [2, 6]	EC50 [2, 7]	EC50 [3, 8]	EC50 [3, 9]	EC50 [3, 10]	EC50 [3, 11]	growth inhibition of S. aureus Smith ATCC 13709 ([1]; 10% BCS-doped Mueller Hinton Broth (40 μL), natural 1 0.04 μg per well or 85% of single bead-derived 1 (0.21 μg), duplicate)	antimicrobial activity [1]	antimicrobial activity ([1]; listed as KLVI)	antimicrobial activity ([1]; listed as YLOI)
CC[C@H](C)[C@@H]1NC(=O)[C@@H](Cc2c[nH]c3ccccc23)NC(=O)[C@@H](CCC(N)=O)NC(=O)[C@H](CCC(=O)O)NC(=O)[C@@H](CCCNC(=N)N)NC(=O)[C@H](CC(C)C)NC(=O)[C@@H](Cc2ccccc2)N(C)C(=O)CNC(=O)[C@H](CO)NC(=O)[C@@H](CCCNC(=N)N)NC(=O)[C@@H](NC(=O)C[C@H](O)CC(C)C)[C@@H](C)OC(=O)[C@H]([C@@H](C)O)NC1=O [Peptide 1, Lysocin E] ({Hexanoyl(3R-OH,5-Me)}-T[dR]SG[dNMeF]L[dR]E[dQ][dW]IT; ester 1-C)	0.559 µM	0.527 µM	0.689 µM	0.46 µM	0.092 µM	0.058 µM	0.167 µM	0.0516 µM	Complete growth inhibition; also recorded: completely inhibit the growth	++		
CC[C@H](C)[C@@H]1NC(=O)[C@@H](Cc2c[nH]c3ccccc23)NC(=O)[C@@H](CCC(N)=O)NC(=O)[C@H](CCC(=O)O)NC(=O)[C@@H](CCCNC(=N)N)NC(=O)[C@H](CC(C)C)NC(=O)[C@@H](Cc2ccccc2)N(C)C(=O)CNC(=O)[C@H](C)NC(=O)[C@@H](CCCNC(=N)N)NC(=O)[C@@H](NC(=O)C[C@H](O)CC(C)C)[C@@H](C)OC(=O)[C@H]([C@@H](C)O)NC1=O [Peptide A1] ({Hexanoyl(3R-OH,5-Me)}-T[dR]AG[dNMeF]L[dR]E[dQ][dW]IT; ester 1-C)	0.975 ± 0.195 µM	1.08 µM	1.09 µM	0.75 µM	0.0927 ± 0.0313 µM	0.128 µM	0.0821 µM	0.0681 µM		+		
CC[C@H](C)[C@@H]1NC(=O)[C@@H](Cc2c[nH]c3ccccc23)NC(=O)[C@@H](C(C)C)NC(=O)[C@H](CCC(=O)O)NC(=O)[C@@H](CCCNC(=N)N)NC(=O)[C@H](CC(C)C)NC(=O)[C@@H](Cc2ccccc2)N(C)C(=O)CNC(=O)[C@H](C)NC(=O)[C@@H](CCCNC(=N)N)NC(=O)[C@@H](NC(=O)C[C@H](O)CC(C)C)[C@@H](C)OC(=O)[C@H]([C@@H](C)O)NC1=O [Peptide A2] ({Hexanoyl(3R-OH,5-Me)}-T[dR]AG[dNMeF]L[dR]E[dV][dW]IT; ester 1-C)	0.714 ± 0.188 µM	0.917 µM	0.68 µM	0.545 µM		0.0897 µM	0.133 µM	0.0575 µM		++		

More lines, main results first:

EC50 [2, 4]	EC50 [2, 5]	EC50 [2, 6]	EC50 [2, 7]	EC50 [3, 8]	EC50 [3, 9]	EC50 [3, 10]	EC50 [3, 11]	SMILES	growth inhibition of S. aureus Smith ATCC 13709 ([1]; 10% BCS-doped Mueller Hinton Broth (40 μL), natural 1 0.04 μg per well or 85% of single bead-derived 1 (0.21 μg), duplicate)	antimicrobial activity [1]	antimicrobial activity ([1]; listed as KLVI)	antimicrobial activity ([1]; listed as YLOI)
0.822 ± 0.234 µM	1.01 µM	0.9 µM	0.559 µM	0.103 ± 0.085 µM	0.0474 µM	0.201 µM	0.0609 µM	CC[C@H](C)[C@@H]1NC(=O)[C@@H](Cc2c[nH]c3ccccc23)NC(=O)[C@@H](C(C)C)NC(=O)[C@H](CCC(=O)O)NC(=O)[C@@H](CCCNC(=N)N)NC(=O)[C@H](CC(C)C)NC(=O)[C@@H](Cc2ccccc2)N(C)C(=O)CNC(=O)[C@H](CCCCN)NC(=O)[C@@H](CCCNC(=N)N)NC(=O)[C@@H](NC(=O)C[C@H](O)CC(C)C)[C@@H](C)OC(=O)[C@H]([C@@H](C)O)NC1=O [Peptide A3] ({Hexanoyl(3R-OH,5-Me)}-T[dR]KG[dNMeF]L[dR]E[dV][dW]IT; ester 1-C)			++ and +	
1.12 ± 0.2 µM	1.32 µM	1.12 µM	0.923 µM	0.441 ± 0.136 µM	0.334 µM	0.595 µM	0.395 µM	CC[C@H](C)[C@@H]1NC(=O)[C@@H](Cc2c[nH]c3ccccc23)NC(=O)[C@@H](CCCN)NC(=O)[C@H](CCC(=O)O)NC(=O)[C@@H](CCCNC(=N)N)NC(=O)[C@H](CC(C)C)NC(=O)[C@@H](Cc2ccccc2)N(C)C(=O)CNC(=O)[C@H](Cc2ccc(O)cc2)NC(=O)[C@@H](CCCNC(=N)N)NC(=O)[C@@H](NC(=O)C[C@H](O)CC(C)C)[C@@H](C)OC(=O)[C@H]([C@@H](C)O)NC1=O [Peptide A7] ({Hexanoyl(3R-OH,5-Me)}-T[dR]YG[dNMeF]L[dR]E[dOrn][dW]IT; ester 1-C)				+ and ++
> 1.5 µM	> 1.5 µM	> 1.5 µM	> 1.5 µM		0.999 µM	> 1.5 µM	0.867 µM	CC[C@H](C)[C@@H]1NC(=O)[C@@H](Cc2c[nH]c3ccccc23)NC(=O)[C@@H](CCCN)NC(=O)[C@H](CCC(=O)O)NC(=O)[C@@H](CCCNC(=N)N)NC(=O)[C@H](CC(C)C)NC(=O)[C@@H](Cc2ccccc2)N(C)C(=O)CNC(=O)[C@H](CC(N)=O)NC(=O)[C@@H](CCCNC(=N)N)NC(=O)[C@@H](NC(=O)C[C@H](O)CC(C)C)[C@@H](C)OC(=O)[C@H]([C@@H](C)O)NC1=O [Peptide A14] ({Hexanoyl(3R-OH,5-Me)}-T[dR]NG[dNMeF]L[dR]E[dOrn][dW]IT; ester 1-C)		+		
1.01 ± 0.21 µM	1.26 µM	0.889 µM	0.895 µM	0.268 ± 0.102 µM	0.231 µM	0.383 µM	0.189 µM	CC(C)C[C@@H](O)CC(=O)N[C@@H]1C(=O)N[C@H](CCCNC(=N)N)C(=O)N[C@@H](C)C(=O)NCC(=O)N(C)[C@H](Cc2ccccc2)C(=O)N[C@@H](CC(C)C)C(=O)N[C@H](CCCNC(=N)N)C(=O)N[C@@H](CCC(=O)O)C(=O)N[C@H](Cc2ccc(O)cc2)C(=O)N[C@H](Cc2c[nH]c3ccccc23)C(=O)N[C@@H](Cc2ccc(O)cc2)C(=O)N[C@@H]([C@@H](C)O)C(=O)O[C@@H]1C [Peptide A15] ({Hexanoyl(3R-OH,5-Me)}-T[dR]AG[dNMeF]L[dR]E[dY][dW]YT; ester 1-C)		+		
